Data taken from patent US10184933B2, “Compositions, systems and methods for gene expression noise drug screening and uses thereof” (priority 2013, dated 2019).
Entries after “also recorded” stand apart in the source; their conditions may differ. Counter-ions that a name gives are not always drawn. Like-named read-outs stand apart in the source and are kept apart here.

Experiments:
latent HIV-1 = settings: Bocklandt et al., 2003; cited from earlier work
HIV-1 LTR promoter [1] = assay type: cell-based; settings: FIG. 6D
HIV-1 LTR promoter [2] = settings: shotgun imaging approach, Boehm et al., 2013; cited from earlier work
[3] = tested on: latent HIV-1 in JLat 8.6 cells; assay type: cell-based
[4] = >500 nM for more than 2 days; Williams et al., 2004; cited from earlier work
HIV-1 LTR promoter [5] = assay: Two-reporter system (LTR-d2GFP and LTR-mCherry) noise measurement; assay type: cell-based; settings: FIG. 6E
Procedure: Without being bound by theory, a destabilized reporter is required to observe transcriptional noise with shorter time scales. GFP noise magnitude (quantified by the variance over the mean fluorescence squared, CV^2) and mean fluorescence were measured by high-throughput flow cytometry 24 hours post 10 uM drug exposure. To control for extrinsic variability in gene expression due to cell volume and state a conservative gating on the population forward versus side scatter was applied (See General Methods). A second LTR driving a long-lived mCherry reporter was integrated and screened alongside the destabilized reporter drug target to control for fluctuations in global resources and post-transcriptional noise sources (FIG. 6E).
To distinguish between compounds that primarily target transcription versus post-transcriptional processes and global resources (extrinsic noise) a second reporter of the LTR promoter driving a stable mCherry gene was included in the same targeted cell population used in the drug noise screen (FIG. 6E). The stable reporter averages out and is unaffected by fluctuations due to episodic transcription. Theory predicts that the destabilized d2GFP reporter can detect transcriptional bursting noise contributions (γp>>kon,koff, where γp is the fluorescent reporter degradation rate) while the two reporters together will move their noise magnitudes to changes in non-transcriptional noise sources. Filtering out non-transcriptional noise signatures of VM hits increases the probability for synergistic reactivation of latency. Noise from the two reporters was compared using the same processing as the LTR-d2GFP. The LTR-mCherry ΔCV^2 of the 85 selected VMs primarily land along the ΔCV^2 d2GFP axis. […]. Of these 25 compounds 15 were identified as modifiers of cell cycle, ATP, inflammation, post-translational modifications, and translation.
In addition to the GFP reporter in the LTR-d2GFP cell line, an LTR driving a long half-life mCherry reporter was present in the cell line. […] To remove compounds that altered CV^2 post transcriptionally, compounds that affected the CV^2 long-lived red reporter while conserving its mean mCherry level were removed. This method continues development of the original and decade-old 2-reporter system for intrinsic versus extrinsic noise measurements in bacteria (Elowitz et al., (2002) Science 297:1183-1186).

[6] = tested on: latent HIV-1 in JLat 9.2 cells; assay: HIV-1 latency reactivation in JLat 9.2 cells; assay type: cell-based
Procedure: Jurkat cells were cultured in RPMI 1640 supplemented with 10% FBS and 1% penicillin-streptomycin. JLat 6.3, JLat 8.6, and JLat 9.2 cells are Jurkat T cell lines containing integrated but transcriptionally latent HIV-1 proviruses.
Drug treatments were performed for 24 hours at 10 uM final concentration in 96-well plates. Compounds were automatically added into 200 μl cultures at the final concentration of 0.1% DMSO. […] Plates were kept in the incubator until measurement and each well was automatically mixed before samples were analyzed. 5×10^4 of all live cells that passed a specific forward scatter (FSC)—side scatter (SSC) gate were collected from each well for noise magnitude measurements from which a conservative gating was applied for about 3×10^3 cells of similar FSC vs SSC to reduce extrinsic noise contributions primarily due to differences in cell volume and state. Each 96-well plate included a column of untreated control cells, cells treated with TNFα (positive control) and one well of non-′ fluorescent naïve Jurkat cells. For HIV-1 reactivation experiments 1×10^4 live cells were collected.

[7] = tested on: latent HIV-1 in primary T-cells; assay type: cell-based; settings: primary T-cell model
Procedure: FIG. 18A schematically depicts a primary T-cell model of HIV-1 latency 48 h after reactivation with PMA or a subset of noise enhancers (% reactivation percentage is calculated relative to maximal reactivation potential). […] The horizontal line represents the mean calculated Bliss Independence Score (C. I. Bliss, Ann. Appl. Biol. 26:585-615 (1939)), a measure for strict additivity for all of the compounds. FIG. 18B schematically depicts stochastic simulations of noise suppression, which reduces noise without altering the mean expression level but limits reactivation induced by an activator. […] Details are described, e.g., in Example 10.

[8] = tested on: latent HIV-1 in JLat 15.4; assay: HIV-1 latency reactivation in JLat 15.4 cells; assay type: cell-based
[9] = known transcriptional modulators applied to the isoclone target
[10] = known transcriptional activators

Compound: CC1=C[C@H]2[C@@]3(O)[C@H](C)C[C@]4(OC(=O)Cc5ccccc5)C([C@@H]3C=C(CO)C[C@]2(O)C1=O)C4(C)C (stereo partly shown) [DPP, 12-deoxyphorbol 13-phenylacetate]
- potency relative to prostratin (latent HIV-1): 20-40 fold

Compound: Cc1sc2c(c1C)C(c1ccc(Cl)cc1)=N[C@@H](CC(=O)OC(C)(C)C)c1nnc(C)n1-2 [JQ1, t-Butyl-2-((6S)-4-(4-chlorophenyl)-2,3,9-trimethyl-6H-thieno[3,2-f][1,2,4]triazolo[4,3-a][1,4]diazepin-6-yl)acetate]
- variability in gene expression (noise magnitude) (HIV-1 LTR promoter [1]; [9]): increase variability in gene expression; also recorded: variability enhancers
- noise magnitude across integration sites (HIV-1 LTR promoter [2]): global increase in noise magnitude

Compound: CC(=O)O[C@@]12C[C@@H](C)[C@@]3(O)[C@@H](C=C(CO)C[C@]4(O)C(=O)C(C)=C[C@@H]34)[C@@H]1C2(C)C [Prostratin, 12-deoxyphorbol 13-acetate]
- reactivation by activator alone ([3]; Prostratin alone, 48 hr): 6%
- toxicity [4]: substantial growth arrest and cell death
- burst frequency (HIV-1 LTR promoter [1]; activator drugs): increase burst frequency
- mean expression level (HIV-1 LTR promoter [1]; [9]): increase mean expression level
- variability in gene expression (noise magnitude) (HIV-1 LTR promoter [1]; [9]): decrease noise magnitude
- variability in gene expression (noise magnitude) (HIV-1 LTR promoter [1]; known transcriptional modulators applied to the isoclone target, listed as prostratin): decrease variability in gene expression
- d2GFP noise (HIV-1 LTR promoter [5]; [10]): decrease both mCherry and d2GFP noise
- mCherry noise (HIV-1 LTR promoter [5]; [10]): decrease both mCherry and d2GFP noise
- transcriptional burst frequency (decreasing noise in mCherry) (HIV-1 LTR promoter [5]; transcriptional modifiers): increase transcriptional burst frequency

Compound: COC(=O)C1=C(C)NC(C)=C(C(=O)OCCN2CCN(C(c3ccccc3)c3ccccc3)CC2)C1c1cccc([N+](=O)[O-])c1 (stereo not shown) [VS1, manidipine hydrochloride]
- decrease of TNF-induced reactivation ([3]; JLat 8.6): ~40%
- decrease of TNFα-mediated reactivation [6]: about 40%
- decrease of Prostratin-induced reactivation [7]: ~50%
- decrease of TNF-induced reactivation [8]: ~40%
